Data published in patent US20110124719A1, “COMPOSITION FOR PROMOTING PRODUCTION OF HYALURONIC ACID CONTAINING KAEMPFEROL AND QUERCETIN” (Amorepacific Corporation, priority 2004, published 2011).

Key:
Type in all cases: cell-based, human
[1] = test system: hyaluronan synthase 2 (HAS2); assay: Quantitative reverse transcription PCR of HAS2 mRNA in HaCaT cells; conditions: treated 24 hours, expressed in treatment groups as well as the control group
From the text: In order to examine an effect of increasing an expression of a HAS gene by kaempferol and quercetin in HaCaT which is a skin cell line of human epidermis, HaCaT cells were respectively treated with kaempferol and quercetin in several concentrations, then the HAS gene was subject to quantitative reverse transcription PCR so as to examine an expression of the HAS gene in a level of mRNA and thus changes of the HAS genes by kaempferol and quercetin were examined as follows. Human keratinocyte cell line, HaCaT cell, which was spontaneously immortalized, was used and obtained from Dr. N. E. Fusenig (Deutsches Krebsforschungszentrum (DKFZ), Heidelberg, Germany). […] A concentration of RNA was measured with a spectrophotometry method and a quality of RNA was checked with an agarose gel electrophoresis. It was examined through a quantitative reverse transcription PCR kaempferol and quercetin's influences on mRNA synthesis of hyaluronan synthase 1 (NAS1), hyaluronan synthase 2 (HAS2) and hyaluronan synthase 3 (HAS3), which are isoforms of hyaluronic acid synthase, as follows. Firstly, a RNA prepared and quantified in the above experimental example 1-2 was subject to a reverse transcription and then it was performed a quantitative PCR under the presence of primers specific for HAS1, HAS2 and HAS3 which are isoforms of hyaluronic acid synthase. […]

[2] = test system: hyaluronan synthase 3 (HAS3); assay: Quantitative reverse transcription PCR of HAS3 mRNA in HaCaT cells; conditions: 24 hours
From the text: In order to examine an effect of increasing an expression of a HAS gene by kaempferol and quercetin in HaCaT which is a skin cell line of human epidermis, HaCaT cells were respectively treated with kaempferol and quercetin in several concentrations, then the HAS gene was subject to quantitative reverse transcription PCR so as to examine an expression of the HAS gene in a level of mRNA and thus changes of the HAS genes by kaempferol and quercetin were examined as follows. Human keratinocyte cell line, HaCaT cell, which was spontaneously immortalized, was used and obtained from Dr. N. E. Fusenig (Deutsches Krebsforschungszentrum (DKFZ), Heidelberg, Germany). Firstly, the cells were cultured in a Dulbecco's modified Eagle's media (DMEM) containing 10% fetal bovine serum (HyClone), sodium bicarbonate 3.6 g/l and antibody (streptomycin 100 μg and penicillin 100 IU/l) (Life Technologies, Inc.) under proper culture conditions (37° C., 5% CO2, 95% air). […] A control group was diluted in a ratio of 1:1,000 and cultured in a medium supplemented with vehicle (dimethylsulfoxide, DMSO). It was not observed any effects of DMSO influencing on growth and differentiation in the control group culture. The HaCaT cells cultured in the experimental example 1-1 were cleaned two times with a phosphate-buffered saline (Life Technologies, Inc.) and RNAs of all cells were separated using a trizol reagent (GibcoBRL Life Technologies, Grand Island, N.Y.) according to manufacturer's instructions. A concentration of RNA was measured with a spectrophotometry method and a quality of RNA was checked with an agarose gel electrophoresis. It was examined through a quantitative reverse transcription PCR kaempferol and quercetin's influences on mRNA synthesis of hyaluronan synthase 1 (NAS1), hyaluronan synthase 2 (HAS2) and hyaluronan synthase 3 (HAS3), which are isoforms of hyaluronic acid synthase, as follows. Firstly, a RNA prepared and quantified in the above experimental example 1-2 was subject to a reverse transcription and then it was performed a quantitative PCR under the presence of primers specific for HAS1, HAS2 and HAS3 which are isoforms of hyaluronic acid synthase. […]

[3] = test system: HaCaT cells; assay: HA-ELISA of hyaluronic acid discharged into culture medium of HaCaT cells; conditions: 24 hours
Description: Firstly, the cells were cultured in a Dulbecco's modified Eagle's media (DMEM) containing 10% fetal bovine serum (HyClone), sodium bicarbonate 3.6 g/l and antibody (streptomycin 100 μg and penicillin 100 IU/l) (Life Technologies, Inc.) under proper culture conditions (37° C., 5% CO2, 95% air). The medium was replaced every three days and the cells were secondary-cultured in a division ratio of 1:5 as soon as the density thereof reached the highest. 1×10^5 cells per 75 cm^2 of a tissue culture flask were aliquot 72 hours before the cell were treated with kaempferol or quercetin, and then cultured in a medium containing 10% fetal bovine serum for 48 hours. Then, the cells were cultured in a serum-free medium for 24 hours, treated with kaempferol and quercetin in concentrations of […], 1 μM and 10 μM, respectively and then cultured for 24 hours. A control group was diluted in a ratio of 1:1,000 and cultured in a medium supplemented with vehicle (dimethylsulfoxide, DMSO).
In order to examine that a production of hyaluronic acid was actually promoted by kaempferol and quercetin, a culture medium of HaCaT cell, which is a skin cell line of human epidermis was treated with kaempferol and quercetin, in several concentrations. After that, an amount of hyaluronic acid that synthesis of hyaluronic acid is promoted and then the acid is discharged into the medium was quantified using HA-ELISA Kit.
To perform the ELISA, it was purchased a Hyaluronan Enzyme-Linked ImmunoSorbent Assay Kit (HA-ELISA, Product No.: K-1200) available from Echelon company. The medium recovered through the above cell cultivation was subject to the HA-ELISA Kit according to manufacturer's instructions, thereby quantifying the synthesis amount of hyaluronic acid that was synthesized in HaCaT cell by kaempferol and quercetin and then discharged into the medium. The control group was diluted in a ratio of 1:1,000 and then cultured in a medium supplemented with vehicle (dimethylsulfoxide, DMSO).
(§1) A significance was considered, based on p=0.05 and data was shown with mean±standard error.

[4] = test system: HaCaT cells; assay: MTT assay of cytotoxicity in HaCaT cells; conditions: 24 hours
Description: In order to examine cytotoxicity of kaempferol and quercetin in HaCaT, which is a skin cell line of human epidermis, according to the concentrations thereof, HaCaT was treated with kaempferol and quercetin in several concentrations and then degrees of cytotoxicity were quantified through a MTT assay.
HaCaT of human keratinocyte cell line, which was spontaneously immortalized, was used and obtained from Dr. N. E. Fusenig (Deutsches Krebsforschungszentrum (DKFZ), Heidelberg, Germany). The cells were cultured in a Dulbecco's modified Eagle's media (DMEM) containing 10% fetal bovine serum (HyClone), sodium bicarbonate 3.6 g/l and antibody (streptomycin 100 μg and penicillin 100 IU/l) (Life Technologies, Inc.) under proper culture conditions (37° C., 5% CO2, 95% air). The medium was replaced every three days and the cells were secondary-cultured in a division ratio of 1:5 as soon as the density thereof reached the highest. 1×10^4 cells per well of a tissue culture flask 96 well plate were aliquot 72 hours before the cells were treated with kaempferol or quercetin, and then cultured in a medium containing 10% fetal bovine serum for 48 hours. Then, the cells were cultured for 24 hours in a serum-free medium, treated with kaempferol and quercetin in concentrations of 0.1 μM, 1 μM and 10 μM, respectively and then cultured for 24 hours. A control group was diluted in a ratio of 1:1,000 and cultured in a medium supplemented with vehicle (dimethylsulfoxide, DMSO).
as §1

| SMILES | expression of HAS2 hyaluronic acid synthase gene (mRNA) [1] | HAS3 mRNA expression compared to the control group ([2]; 1 μM) | HAS3 mRNA expression compared to the control group ([2]; 10 μM) | increase of hyaluronic acid synthesis compared to the control group ([3]; 1 μM) [%] | increase of hyaluronic acid synthesis compared to the control group ([3]; 10 μM) [%] | cytotoxicity compared to the control group (MTT) ([4]; 0.1 μM) | cytotoxicity compared to the control group (MTT) ([4]; 1 μM) | cytotoxicity compared to the control group (MTT) ([4]; 10 μM) |
| --- | --- | --- | --- | --- | --- | --- | --- | --- |
| O=c1c(O)c(-c2ccc(O)cc2)oc2cc(O)cc(O)c12 [kaempferol, Kaempferol] | expressed | increased | increased | 7 | 8 | did not exhibit cytotoxicity | did not exhibit cytotoxicity | did not exhibit cytotoxicity |
| O=c1c(O)c(-c2ccc(O)c(O)c2)oc2cc(O)cc(O)c12 [quercetin] | expressed | increased | increased | 11 | 24 | did not exhibit cytotoxicity | did not exhibit cytotoxicity | did not exhibit cytotoxicity |
